Laboratory results from patent US12590095B2, “Crystalline forms of an orally available, selective kit and PDGFR kinase inhibitor” (Sandoz AG, priority 2019, dated 2026).

Key:
Format in all cases: physicochemical
[1] = Gravimetric moisture sorption (GMS); details: for mass change during the sorption cycle: GMS, (25±0.1)° C.; for solid form by powder X-ray diffraction after the GMS experiment: after full sorption/desorption cycle 0-90% RH; for hygroscopicity: judged from GMS mass change
Procedure: Moisture sorption isotherms were recorded along with other samples with an SPSx-1μ moisture sorption analyzer (ProUmid, Ulm). The measurement cycle was started at ambient relative humidity (RH) of 25% (Form A) or 40% (Form B and Form Hy1). Relative humidity was then decreased to 5% in 5% steps, followed by a further decrease to 3% and to 0%. Afterwards RH was increased from 0% to 90% in a sorption cycle and decreased to 0% in a desorption cycle in 5% steps. Finally, the RH was increased to a relative humidity of 25% (Form A) or 40% (Form B and Form Hy1) in 5% steps. The time per step was set to a minimum of 2 hours and a maximum of 6 hours. If an equilibrium condition with a constant mass of +0.01% within 1 hour was reached before the maximum time for all examined samples the sequential humidity step was applied before the maximum time of 6 hours. If no equilibrium was achieved the consecutive humidity step was applied after the maximum time of 6 hours. The temperature was (25±0.1)° C.

[2] = Slurry experiments in aqueous isopropanol, form checked by PXRD; details: for form found by PXRD after slurry: aqueous isopropanol 3:1, 0° C.
Procedure: Form A and Form B of avapritinib were each slurried in aqueous isopropanol [4 mL, 3:1 (volume:volume)] at 0° C., 20° C. and 40° C., respectively. Samples were taken after 1 and 5 days and investigated by powder-X-ray diffraction.

[3] = Thermogravimetric analysis (TGA); details: for TGA mass loss: 10 K/min
Procedure: TGA was performed on a Mettler TGA/DSC 1 instrument. The samples (8.29 mg Form A, 8.11 mg Form B, 4.12 mg Form Hy1) were each weighed into a 100 microliter aluminum pan closed with an aluminum lid. The lid was automatically pierced at the beginning of the measurement. The samples were each heated from 25 to 250° C. at a rate of 10 K/min. Nitrogen (purge rate 50 mL/min) was used as purge gas.

[4] = Storage stability under various stress conditions, form checked by PXRD; details: 6 months
Source text: Avapritinib Form A, Form B and hydrate Form Hy1 were each subjected to the various stress conditions listed in Table 8 for 6 months and the samples were investigated by powder X-ray diffraction.

mass change during the sorption cycle ([1]; 0-90% RH) | solid form by powder X-ray diffraction after the GMS experiment [1] | hygroscopicity [1] | stability in slurry experiments ([2]; all applied conditions (0, 20, 40° C.; 1 and 5 days)) | thermodynamic relationship of Form A and Form B ([2]; from slurry experiments and DSC at 1 K/min) | TGA mass loss ([3]; up to about 190° C.) | conversion in slurry experiments ([2]; 0° C.) | conversion in slurry experiments ([2]; 20° C. and 40° C., already after 1 day) | form found by PXRD after slurry ([2]; 1 day) | form found by PXRD after slurry ([2]; 5 days) | TGA mass loss ([3]; up to about 180° C.) | mass change during the sorption cycle ([1]; 10-90% RH) | form found by PXRD after stress test ([4]; 25° C./60% RH) | form found by PXRD after stress test ([4]; 30° C./65% RH) | form found by PXRD after stress test ([4]; 40° C./75% RH) | form found by PXRD after stress test ([4]; RT/97% RH) | TGA mass loss ([3]; from beginning of measurement until about 110° C.) [weight-%] | water corresponding to TGA mass loss ([3]; until about 110° C.) | Compound
about 0.1 weight % | Form A | non-hygroscopic | remained stable | the stable form below its melting point | about 0.3 weight % | – | – | – | – | – | – | – | – | – | – | – | – | Cn1cc(-c2cc3c(N4CCN(c5ncc([C@@](C)(N)c6ccc(F)cc6)cn5)CC4)ncnn3c2)cn1 [Form A, (1S)-1-(4-fluorophenyl)-1-(2-[4-[6-(1-methyl-1H-pyrazol-4-yl)pyrrolo[2,1-f][1,2,4]triazin-4-yl]piperazin-1-yl]pyrimidin-5-yl)ethan-1-amine]
about 0.3 weight % | Form B | only slightly hygroscopic | – | – | – | partially converted to Form A | fully converted to Form A | B + A | A + B | about 0.3 weight-% | – | – | – | – | – | – | – | Cn1cc(-c2cc3c(N4CCN(c5ncc([C@@](C)(N)c6ccc(F)cc6)cn5)CC4)ncnn3c2)cn1 [Form B, (1S)-1-(4-fluorophenyl)-1-(2-[4-[6-(1-methyl-1H-pyrazol-4-yl)pyrrolo[2,1-f][1,2,4]triazin-4-yl]piperazin-1-yl]pyrimidin-5-yl)ethan-1-amine]
– | Form Hy1 | only slightly hygroscopic | – | – | – | – | – | – | – | – | about 1.4 weight % | Hy1 | Hy1 | Hy1 | Hy1 | 3.5 | approximately 1 mol equivalent | Cn1cc(-c2cc3c(N4CCN(c5ncc([C@@](C)(N)c6ccc(F)cc6)cn5)CC4)ncnn3c2)cn1 [Form Hy1]
